Results published in paper PMC7822874, “Chemoprotective antimalarials identified through quantitative high-throughput screening of Plasmodium blood and liver stage parasites” (Scientific Reports, 2021).
Like-named read-outs stand apart in the source and are kept apart here.

Legend:
[1] = system: luciferase-expressing P. berghei liver stage parasites in HepG2 cells; assay: Inhibition of liver-stage development assay (ILSDA), Method 2 (WRAIR, 96-well); format: cell-based, Plasmodium berghei; conditions: for Max Resp (signal direction of the dose response): Decrease = decreasing P. berghei viability with dose, Increase = increasing signal, Inactive = no dose response; for Activity direction (Decrease / Inactive): P. berghei liver stage
[2] = system: Plasmodium falciparum Dd2 asexual blood stage parasites; assay: microbe, parasite or virus in culture; set-up: species or system Plasmodium falciparum Dd2 in human erythrocytes; single determination (one 11-point concentration-response curve); conditions: Plasmodium falciparum, DD2, Erythrocyte, 72 h; read-out: AC50
[3] = system: P. berghei-ANKA-GFP-LucCON liver stage parasites in HepG2-A16-CD81EGFP cells; assay: P. berghei liver stage Pb-Luc assay, Method 1 (UCSD, 1536-well); format: cell-based, Plasmodium berghei; conditions: for activity at 1 µM / activity at 3 µM: 48 h, average of 2 wells on a 1536 well plate; for activity at 1 µM: 1 uM (compounds provided at 10 mM); for activity at 3 µM: 3 uM (compounds provided at 10 mM); for Max Resp (signal direction of the dose response) / AC50 / Log AC50 (M): Method 1; for Max Resp (signal direction of the dose response): Decrease = decreasing P. berghei viability with dose, Increase = increasing signal, Inactive = no dose response
in vitro = conditions: human, HepG2-A16-CD81EGFP cells, uninfected
[4] = Plasmodium berghei, HepG2, Method 2, Hill fit, 50% of maximum activity response, read-out: AC50
[5] = Plasmodium berghei, HepG2, Method 2, log10 of molar AC50 from Hill fit, read-out: Log AC50 (converted)
[6] = Plasmodium berghei, Hill fit, 50% of maximum activity response, read-out: AC50
[7] = Plasmodium berghei, log10 of molar AC50 from Hill fit, read-out: Log AC50 (converted)
[8] = Hill fit, 50% of maximum activity response, read-out: AC50
[9] = log10 of molar AC50 from Hill fit
[10] = Plasmodium berghei, HepG2, P. berghei liver stage, Method 2, dose response, read-out: AC50
[11] = Plasmodium berghei, HepG2, P. berghei liver stage, Method 2, dose response, read-out: Log AC50 (converted)

| Compound | Max Resp (signal direction of the dose response) ([1]; Method 2) | AC50 [1, 4] [µM] | AC50 [1, 5] [µM] | AC50 [2] [µM] | Max Resp (signal direction of the dose response) [3] | Activity direction (Decrease / Inactive) ([1]; Method 2, dose response) | also measured |
| --- | --- | --- | --- | --- | --- | --- | --- |
| Cc1ccc(-c2nn3c(=O)c4c([nH]c3c2C)CCCC4)cc1 [MLS000029798-01] | Decrease | 0.282 | 0.282 | 2.99 | – | – | activity at 1 µM ([3]; Plasmodium berghei, column 11, read-out: Pb-Luc (P. berghei liver stage), % of control, lower concentration, first repeat): 15%; activity at 1 µM ([3]; Plasmodium berghei, column 12, read-out: Pb-Luc (P. berghei liver stage), % of control, lower concentration, second repeat): 11%; activity at 3 µM ([3]; Plasmodium berghei, column 8, read-out: Pb-Luc (P. berghei liver stage), % of control, higher concentration, first repeat): 6.61%; activity at 3 µM ([3]; Plasmodium berghei, column 9, read-out: Pb-Luc (P. berghei liver stage), % of control, higher concentration, second repeat): 8% |
| CCOC(=O)c1c[nH]c2c3c(ccc2c1=O)CCCC3 [MLS000085191-01] | Increase | – | – | – | – | – | viability at 48 h, 1 µM (in vitro): 98%; viability at 48 h, 3 µM (in vitro): 106% |
| Cc1ccc2[nH]c(-c3ccccc3)cc(=O)c2c1 [MLS000112473-01] | Decrease | 5.62 | 5.62 | 4.73 | – | – | – |
| CCCCCCCc1c(C)[nH]c(N2CCOCC2)nc1=O [MLS000531187-01] | Decrease | 5.62 | 5.62 | 5.31 | – | – | – |
| CC1CCc2cc(F)ccc2N1C(=O)CSc1nnc2c(n1)[nH]c1ccccc12 (stereo not drawn) [MLS000557140-01] | Decrease | 5.62 | 5.62 | 7.5 | – | – | – |
| N#C/C(=C\c1ccc(Sc2ccc(Cl)cc2)o1)c1nc2ccccc2[nH]1 [MLS000579372-01] | Decrease | 0.501 | 0.501 | 2.99 | – | – | – |
| O=C(CCc1ccccc1)NC(c1cccs1)c1cc(Cl)c2cccnc2c1O (stereo not drawn) [MLS000703748-01] | Inactive | – | – | – | – | – | viability at 48 h, 1 µM (in vitro): 113%; viability at 48 h, 3 µM (in vitro): 51% |
| COc1ccc(C2=Nn3c([n+](C)c4ccccc43)SC2)cc1 [MLS000717833-01] | Decrease | 11.2 | 11.2 | – | – | – | viability at 48 h, 1 µM (in vitro): 83%; viability at 48 h, 3 µM (in vitro): 63% |
| O=C(Nc1ccc(N2CCN(c3ncccc3C(F)(F)F)CC2)nc1)c1cccs1 [MLS000862045-01] | Decrease | 0.447 | 0.447 | – | – | – | viability at 48 h, 1 µM (in vitro): 105%; viability at 48 h, 3 µM (in vitro): 95% |
| COc1ccc2nc(C)cc(Nc3ccc(Cl)c(Cl)c3)c2c1 [NCGC00098192-01] | Decrease | 0.398 | 0.398 | 2.66 | Inactive | – | – |
| COc1cc(/C=C(\C#N)c2nc3ccccc3[nH]2)ccc1OCc1ccc(F)cc1 [NCGC00102606-01] | Decrease | 0.794 | 0.794 | 5.31 | Decrease | – | AC50 [3, 6]: 1.41 µM; AC50 [3, 7]: 1.41 µM |
| Cc1cccc(N2CCN(c3nc4ccccc4c4nnc(C)n34)CC2)c1C [NCGC00107423-01] | Decrease | 0.089 | 0.0891 | 5.31 | Inactive | – | – |
| COc1cccc(NC(=O)c2cccc3c(=O)c4c([nH]c23)CCCC4)c1 [NCGC00119838-01] | Increase | – | – | 2.99 | Inactive | – | – |
| Cc1cccc(N(C)c2nc3ccccc3c3nnc(C)n23)c1 [NCGC00126108-01] | Decrease | – | – | 1.06 | Decrease | – | AC50 ([1]; Method 2, Hill fit, 50% of maximum activity response, read-out: AC50): 0.447 µM; Log AC50 (M) ([1]; Method 2, log10 of molar AC50 from Hill fit): -6.350 M; AC50 [3, 6]: 0.316 µM; AC50 [3, 7]: 0.316 µM |
| CCOC(=O)c1[nH]c(C)c(CCC(=O)N2CCN(c3cccc(C)c3C)CC2)c1C [NCGC00134568-01] | Decrease | 0.562 | 0.562 | 1.33 | Inactive | – | – |
| CCOC(=O)c1[nH]c(C)c(CCC(=O)N2CCN(c3cc(Cl)ccc3C)CC2)c1C [NCGC00134588-01] | Decrease | 0.708 | 0.708 | 1.19 | Inactive | – | – |
| COc1ccc2nc(C[C@@H]3C[C@@H](C(C)C)[C@H](CNCc4ccccc4O)C=C3C)[nH]c2n1 [NCGC00391280-01] | Inactive | – | – | 0.243 | – | – | AC50 [3, 6]: 1.58 µM; AC50 [3, 7]: 1.58 µM |
| COc1ccc(-n2nc(C)c([C@@H]3C=C[C@@H](NCc4ccc(N(C)C)cc4)C3)c2C)cc1 [NCGC00394616-01] | Decrease | 2.82 | 2.82 | 4.33 | Decrease | – | AC50 [3, 8]: 1.58 µM; Log AC50 (M) [3, 9]: -5.800 M; AC50 [3, 6]: 1.41 µM; AC50 [3, 7]: 1.41 µM |

| Compound | Max Resp (signal direction of the dose response) ([1]; Method 2) | AC50 [1, 4] [µM] | AC50 [1, 5] [µM] | AC50 [2] [µM] | Max Resp (signal direction of the dose response) [3] | Activity direction (Decrease / Inactive) ([1]; Method 2, dose response) | also measured |
| --- | --- | --- | --- | --- | --- | --- | --- |
| CCC(CC)c1cc([C@H]2CN3CC[C@H]2C[C@@H]3CNC(C)=O)nc(-c2ccncc2)n1 [NCGC00394634-01] | Decrease | 0.355 | 0.355 | 15.3 | Decrease | – | – |
| CCC(CC)c1cc([C@H]2CN3CC[C@H]2C[C@@H]3CNC(=O)Cc2cccs2)nc(-c2ccncc2)n1 [NCGC00400345-01] | Decrease | 0.251 | 0.251 | 2.99 | Decrease | – | AC50 [3, 6]: 5.62 µM; AC50 [3, 7]: 5.62 µM |
| COc1ccc(-c2ccc3ncc(Nc4ccncc4)n3n2)cc1OC [NCGC00412536-01] | Inactive | – | – | 4.85 | – | – | AC50 [3, 6]: 2.24 µM; AC50 [3, 7]: 2.24 µM |
| CC(C)c1ccc(CN2CC(CNc3cccnc3)C3(C2)CN(c2ccccc2)C3)cc1 (stereo not drawn) [NCGC00415809-01] | – | – | – | 4.85 | – | Inactive | – |
| Oc1ccccc1CN1CC(CNc2cccnc2)C2(C1)CN(c1ccccc1)C2 (stereo not drawn) [NCGC00415924-01] | – | – | – | 10.9 | – | Inactive | – |
| O=[S+]([O-])(NCC1CN(Cc2ccc(O)cc2)CC12CN(c1ccccc1)C2)c1ccccc1 (stereo not drawn) [NCGC00415939-01] | – | – | – | 6.68 | – | Inactive | – |
| Clc1cnccc1CN1CC(CNc2ccccc2)C2(C1)CN(c1ccccc1)C2 (stereo not drawn) [NCGC00416018-01] | – | – | – | 13.7 | – | Inactive | – |
| COc1ccc(-n2nc(C)c([C@@H]3C=C[C@@H](NCc4ccc(F)cc4)C3)c2C)cc1 [NCGC00421412-01] | – | – | – | 1.37 | Decrease | Decrease | AC50 [1, 10]: 3.98 µM; AC50 [1, 11]: 3.98 µM; AC50 [3, 8]: 1.78 µM; Log AC50 (M) [3, 9]: -5.750 M; AC50 [3, 6]: 1.58 µM; AC50 [3, 7]: 1.58 µM |
| O=C(Nc1ccc2c(N3CCCCC3)ncnc2c1)c1cc(F)cc(F)c1 [NCGC00425525-01] | – | – | – | 1.88 | – | Decrease | AC50 [1, 10]: 0.398 µM; AC50 [1, 11]: 0.398 µM; AC50 [3, 6]: 1.41 µM; AC50 [3, 7]: 1.41 µM |
| Cc1nc2c(c(N3CCCC(COc4cccc(F)c4)C3)n1)CCNCC2 (stereo not drawn) [NCGC00440030-01] | – | – | – | 8.41 | – | Inactive | – |
| O=c1[nH]c(N2CCOCC2)nc2c1CCN(Cc1cc(Cl)ccc1F)CC2 [NCGC00440651] | – | – | – | – | – | Decrease | AC50 [1, 10]: 0.2 µM; AC50 [1, 11]: 0.2 µM |
| CCCN1C(CC(C)C)=N[S+](=O)([O-])c2cc(NC(=O)C(C)C)ccc21 [NCGC00473220-01] | – | – | – | – | – | Decrease | AC50 [1, 10]: 1.12 µM; AC50 [1, 11]: 1.12 µM |
| CC(=O)Nc1ccc2c(c1)[S+](=O)([O-])N=C(CC(C)C)N2CC(C)C [NCGC00473311-01] | – | – | – | – | – | Inactive | – |
| CC(C)C1=N[S+](=O)([O-])c2cc(NC(=O)c3ccco3)ccc2N1c1ccccc1 [NCGC00473412-01] | – | – | – | – | – | Inactive | – |
| CCC(C)C1=N[S+](=O)([O-])c2cc(NC(=O)c3ccco3)ccc2N1c1ccccc1 (stereo not drawn) [NCGC00473608-01] | – | – | – | – | – | Decrease | AC50 [1, 10]: 3.98 µM; AC50 [1, 11]: 3.98 µM |
| CC(=O)Nc1ccc2c(c1)[S+](=O)([O-])N=C(CC(C)C)N2c1ccccc1 [NCGC00475154-01] | – | – | – | – | – | Inactive | – |
| CC(C)CC1=N[S+](=O)([O-])c2cc(NC(=O)C3CC3)ccc2N1c1ccccc1 [NCGC00475156-01] | – | – | – | – | – | Decrease | AC50 [1, 10]: 3.16 µM; AC50 [1, 11]: 3.16 µM |
| CCC1=N[S+](=O)([O-])c2cc(NC(=O)C3CC3)ccc2N1CC(C)C [NCGC00475158-01] | – | – | – | – | – | Inactive | – |
